Test results: patent US11773146B2, “Disruption of the WAVE3 protein complex for suppression of invasion and metastasis” (UNIVERSITY OF GEORGIA RESEARCH FOUNDATION, INC., priority 2015, dated 2023)
“Also recorded” adds a separate entry of the source. Bridges are numbered along the chain shown (N, C = ends). Where no end group is shown, it is not given here. [ ]: non-standard residue; d: D form. S5 = C=CCCC[C@](C)(N)C(=O)O

What was measured:
[1] = system: WASF3; test: IP analysis of WASF3 phosphorylation; format: cell-based; conditions: for WASF3 phosphorylation levels: MDA-MB-231 cells, same effect in PC3; for suppression of WASF3 phosphorylation compared with 17-AAG: comparison with HSP90 inhibitor 17-AAG
Method: (§1) Immunoprecipitation assays were carried out as described previously (Sossey-Alaoui, K., et al. J. Biol. Chem. 82:26257-26265 (2007)). Specially, to determine the physical interaction with individual peptides, MDA-MB-231 cells were pretreated with 10 μM biotin-labeled peptides for 24 hours and lysates were incubated with immobilized avidin resin overnight at 4° C. The pull down samples were subjected to SDS-PAGE followed by Western blot analysis.

[2] = system: WASF3, NCKAP1 or RAC1; test: Western blot of protein levels with RAC1 inhibitor; format: cell-based; conditions: MDA-MB-231 and Hs578T cells
From the text: (§2) MDA-MB-231, Hs578T and T47D breast cancer cell lines were obtained directly from American Type Culture Collection (Rockville, Md.). MDA-MB-231 and T47D and have been verified using SNP-CGH (Teng Y, et al. Int J Cancer 2011 129:2825-2835) for characteristic cytogenetic changes. The ATCC Cell Authentication Testing service confirmed the identity of Hs578T using STR DNA fingerprinting analysis. Standard cell culture, transient transfections, RT-PCR, western blotting, immunoprecipitation (IP), flow cytometry, Biotin-Avidin pulldown, lentiviral transduction, cell proliferation and Transwell invasion assays were carried out as described previously (Teng Y, et al. Int J Cancer 2011 129:2825-2835; Teng Y, et al. J Biol Chem 2012 287:10051-10059; Teng Y, et al. Carcinogenesis 2013 34:1994-1999).

[3] = system: MDA-MB-231 cells overexpressing NCKAP1; test: Transwell invasion assay in cells overexpressing NCKAP1; format: cell-based; conditions: parental cells with empty vector and cells overexpressing NCKAP1
From the text: as §2
Lentiviral pCDH-CMV-MCS-EF1-PURO-HA-WASF3 (pCDH-HA-WASF3) was generated as described previously (Teng Y, et al. Carcinogenesis 2013 34:1994-1999). To construct the HA-NCKAP1 overexpression vector, the full-length human NCKAP1 was amplified from the template NCKAP1 cDNA clone (OriGene, Rockville, Md.) and was inserted into pCDHCMV-MCS-EF1-GFP lentiviral vector (System Biosciences, Mountain View, Calif.) as described previously (Teng Y, et al. Oncogene 2014 33:203-211). […]

[4] = system: MDA-MB-231 and Hs578T cells; test: Transwell invasion assay with RAC1 inhibitor; format: cell-based; conditions: dose-dependent treatment
From the text: as §2

[5] = system: MDA-MB-231 cells; test: Transwell invasion assay (WANT peptides); format: cell-based; conditions: for invasion potential: final concentration of 10 μM
From the text: There are currently no small molecules that target WASF3 function directly, but targeting the WRC may provide a means of suppressing invasion.

[6] = system: MDA-MB-231 and PC3 cells; test: MTS cell proliferation assay; format: cell-based; conditions: 10 μM over 24 hours
Method: (§3) Hs578T, MDA-MB-231, DU145 and PC3 cells were purchased from the American Type Culture Collection (ATCC) and maintained according to the supplier's instructions. Lentiviral transduction, cell proliferation assays, wound healing assays, Matrigel invasion assays, Western blotting, flow cytometry and confocal image analysis were carried out as described previously (Teng, Y., et al. Br. J. Cancer 103:1066-1075 (2010); Teng, Y., et al. Int. J. Cancer 129:2825-2835 (2011); Teng, Y., et al. Oncogene 33:203-211 (2014); Teng, Y., et al. J. Biol. Chem. 287:10051-10059 (2012); Teng, Y., et al. Carcinogenesis […] (2013); Teng, Y. et al. Oncogene Mar 30 (2015)).

[7] = molecular target: T1, WASF3-CYFIP1 complex (Homo sapiens, UniProt Q7L576); test: IP of WASF3: presence of CYFIP1 in the immunocomplex; format: cell-based; conditions: MDA-MB-231 cells treated with the SPs
T1 construct: endogenous in cells; host or cells: MDA-MB-231
T1 sequence (Q7L576 whole entry): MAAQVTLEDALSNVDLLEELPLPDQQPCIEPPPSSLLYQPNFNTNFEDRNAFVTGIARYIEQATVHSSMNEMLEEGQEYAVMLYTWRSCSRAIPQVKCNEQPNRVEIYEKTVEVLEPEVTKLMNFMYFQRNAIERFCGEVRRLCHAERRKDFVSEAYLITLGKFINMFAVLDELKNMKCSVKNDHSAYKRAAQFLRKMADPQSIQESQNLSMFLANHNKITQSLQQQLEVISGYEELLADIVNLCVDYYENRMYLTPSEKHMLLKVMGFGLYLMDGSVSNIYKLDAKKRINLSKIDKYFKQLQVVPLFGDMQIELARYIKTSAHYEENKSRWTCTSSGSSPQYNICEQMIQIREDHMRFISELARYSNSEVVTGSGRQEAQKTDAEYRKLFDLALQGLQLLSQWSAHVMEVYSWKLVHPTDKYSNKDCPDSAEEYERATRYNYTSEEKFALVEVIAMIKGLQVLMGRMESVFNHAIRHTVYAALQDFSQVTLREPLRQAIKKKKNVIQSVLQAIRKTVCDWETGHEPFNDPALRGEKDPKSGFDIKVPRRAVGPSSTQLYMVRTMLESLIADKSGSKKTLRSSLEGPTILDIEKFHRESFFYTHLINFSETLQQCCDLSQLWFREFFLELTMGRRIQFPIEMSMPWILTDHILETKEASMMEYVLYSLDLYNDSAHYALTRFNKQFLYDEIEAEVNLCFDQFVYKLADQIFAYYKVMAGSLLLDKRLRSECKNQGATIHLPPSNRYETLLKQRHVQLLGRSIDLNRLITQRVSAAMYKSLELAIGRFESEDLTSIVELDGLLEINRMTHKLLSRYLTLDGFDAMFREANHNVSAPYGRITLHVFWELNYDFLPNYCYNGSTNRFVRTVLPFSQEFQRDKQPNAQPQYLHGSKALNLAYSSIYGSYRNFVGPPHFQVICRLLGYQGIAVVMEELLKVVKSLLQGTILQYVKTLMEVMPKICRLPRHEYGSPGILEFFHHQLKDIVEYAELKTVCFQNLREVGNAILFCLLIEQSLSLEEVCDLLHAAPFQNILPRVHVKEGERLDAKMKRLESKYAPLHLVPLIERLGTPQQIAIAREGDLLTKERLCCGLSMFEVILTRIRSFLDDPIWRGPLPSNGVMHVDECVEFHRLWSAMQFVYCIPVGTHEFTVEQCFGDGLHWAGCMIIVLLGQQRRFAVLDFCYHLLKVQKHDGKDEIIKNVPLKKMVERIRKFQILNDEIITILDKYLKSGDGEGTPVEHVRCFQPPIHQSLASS
T1 sequence (Q9Y2A7 2-1128 partner limits assumed): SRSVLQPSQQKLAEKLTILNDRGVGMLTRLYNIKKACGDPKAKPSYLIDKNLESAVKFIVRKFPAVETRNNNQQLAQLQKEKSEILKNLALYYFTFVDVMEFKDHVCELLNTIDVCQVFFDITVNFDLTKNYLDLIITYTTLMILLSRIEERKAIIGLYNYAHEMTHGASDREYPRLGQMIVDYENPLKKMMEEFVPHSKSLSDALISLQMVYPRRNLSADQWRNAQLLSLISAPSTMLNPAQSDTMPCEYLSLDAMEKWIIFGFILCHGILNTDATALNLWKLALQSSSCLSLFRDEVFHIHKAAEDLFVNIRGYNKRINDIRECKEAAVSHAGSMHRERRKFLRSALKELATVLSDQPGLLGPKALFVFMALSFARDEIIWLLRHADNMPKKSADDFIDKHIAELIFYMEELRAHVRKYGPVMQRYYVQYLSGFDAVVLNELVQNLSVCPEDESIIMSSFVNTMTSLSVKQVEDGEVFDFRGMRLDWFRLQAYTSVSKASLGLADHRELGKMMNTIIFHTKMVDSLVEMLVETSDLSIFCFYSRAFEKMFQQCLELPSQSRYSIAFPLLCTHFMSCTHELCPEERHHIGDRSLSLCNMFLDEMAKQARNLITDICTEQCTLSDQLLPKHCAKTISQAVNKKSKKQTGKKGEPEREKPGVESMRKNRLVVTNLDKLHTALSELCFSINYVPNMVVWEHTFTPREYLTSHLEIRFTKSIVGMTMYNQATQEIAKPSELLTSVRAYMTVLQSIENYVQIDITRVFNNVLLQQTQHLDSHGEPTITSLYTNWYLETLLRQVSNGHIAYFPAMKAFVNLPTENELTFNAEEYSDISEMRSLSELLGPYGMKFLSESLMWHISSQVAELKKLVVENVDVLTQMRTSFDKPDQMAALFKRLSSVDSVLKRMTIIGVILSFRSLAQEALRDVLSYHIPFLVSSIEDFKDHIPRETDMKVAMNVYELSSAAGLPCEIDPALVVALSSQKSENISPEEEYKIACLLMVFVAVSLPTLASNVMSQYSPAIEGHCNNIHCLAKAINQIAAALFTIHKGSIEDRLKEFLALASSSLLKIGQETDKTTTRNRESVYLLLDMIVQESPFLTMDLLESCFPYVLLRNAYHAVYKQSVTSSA
Method: as §1

[8] = system: MDA-MB-231 and PC3 cells; test: Scratch wound assay; format: cell-based; conditions: breast and prostate cell lines, versus DMSO and scrambled peptide
Method: as §3

[9] = molecular target: T2, CYFIP1 (Homo sapiens, UniProt Q7L576); test: Avidin-biotin pull down with biotinylated stapled peptides; format: binding; conditions: biotinylated peptide 10 μM, MDA-MB-231 cells
T2 construct: endogenous in cells; host or cells: MDA-MB-231
T2 sequence (Q7L576 whole entry): as the sequence (Q7L576 whole entry) above
Method: as §1
To determine whether the SPs formed a complex with WASF3 within the cells, MDA-MB-231 cells were exposed to biotinylated WAHM1 and WAHM2 for 6 hours, after which the cells were lysed and pull down assays were performed using avidin-coated beads.

[10] = system: MDA-MB-231 and PC3 cells; test: Transwell invasion analysis (WAHM peptides); format: cell-based; conditions: breast and prostate cells
Method: as §3

[11] = system: MDA-MB-231 and PC3 cells; test: Phalloidin staining and quantitation of filamentous actin; format: cell-based; conditions: 24 hours; for actin stress fibers (phalloidin staining): 10 μM; for fluorescence intensity of phalloidin stained cells: versus DMSO or scrambled peptides
Method: MDA-MB-231 and PC3 cells were seeded (10,000 cells per well) on slides with the Nunc™ Lab-Tek™ II Chamber Slide™ System (Thermo Fisher Scientific) in complete medium overnight and incubated with 10 μM WAHM or scrambled peptides for 24 hours. Cells were then fixed with 3.7% formaldehyde for 15 min and permeabilized with 0.1% Triton X-100 for 10 min and incubated with Texas-red phalloidin (Life technologies) for an additional 30 min to stain actin filaments. Cells were imaged using a Zeiss LSM 410 confocal microscope equipped with ×63 (1.4 numerical aperture) oil objective (Carl Zeiss) as previously described8. To quantitate the filamentous actin, cells were seeded at 2000 cells per well in a 96 well plate and treated with […] or scrambled peptides for 24 hours. Cells were then stained with phalloidin as described above, followed by extensive washings. Phallodin was solubilized with methanol and the supernatant was transferred to a clear-bottom black plate, and the fluorescence was determined using Infinite® M1000 PRO (Tecan). A parallel set of cells was used to determine cell number using the CellTiter-Glo® Luminescent Cell Viability kit from Promega (Madison), according to the manufacturer's parameters. Data from three independent experiments were expressed as mean relative fluorescence units per cell SEM.

[12] = system: WASF3; test: Western blot of WASF3 protein levels after WAHM treatment; format: cell-based; conditions: for WASF3 levels in serum-starved cells: MDA-MB-231 and PC3 cells starved overnight, then treated for 4 hours; for intracellular levels of either WASF3 or CYFIP1: MDA-MB-231 cells; for WASF3 protein levels: MDA-MB-231 cells in serum, 2 to 24 hours
Method: as §3

[13] = system: MMP-9; test: MMP-9 secretion in culture supernatant by ELISA; format: cell-based, Human; conditions: MDA-MB-231 and PC3 cells, 24 hours, compared with scrambled controls
Method: After incubation with WAHM or scrambled peptides for 24 hours, MDA-MB-231 and PC3 cell supernatants were recovered and centrifuged at 1000 g at 4° C. for 20 min. MMP-9 levels in supernatants were measured using the Human MMP-9 Quantikine® ELISA kit (R&D Systems) and microplate reader at 450 nm.

[14] = system: KISS1; test: Western blot of KISS1 levels; format: cell-based; conditions: MDA-MB-231 cells, compared with scrambled peptides
Method: as §3

Row | Compound | WASF3 phosphorylation levels [1] | invasion potential [5] | cell proliferation (MTS) [6] | CYFIP1 in WASF3 immunocomplex [7] | migration potential / cell motility [8] | CYFIP1 in the pull down complex [9] | effect on invasion (in words) [10] | actin stress fibers (phalloidin staining) [11] | fluorescence intensity of phalloidin stained cells [11] | WASF3 levels in serum-starved cells [12] | intracellular levels of either WASF3 or CYFIP1 [12] | WASF3 protein levels [12] | secreted MMP9 levels [13] | suppression of WASF3 phosphorylation compared with 17-AAG [1] | KISS1 protein levels [14] | further results
1 | C=CCNC1=C2C[C@@H](C)C[C@H](OC)[C@H](O)[C@@H](C)/C=C(\C)[C@H](OC(N)=O)[C@@H](OC)/C=C\C=C(/C)C(=O)NC(=CC1=O)C2=O [17-AAG, reference compound] | reduced WASF3 phosphoactivation |  |  |  |  |  |  |  |  |  |  |  |  |  |  | 
2 | CCN(CC)CCCC(C)Nc1nc(C)cc(Nc2ccc3nc(C)cc(N)c3c2)n1 (stereo not drawn) [NSC23766] |  |  |  |  |  |  |  |  |  |  |  |  |  |  |  | protein levels of either WASF3, NCKAP1 or RAC1 [2]: without affecting; also recorded: does not affect protein levels; invasion potential in cells expressing NCKAP1 [3]: significant reduction in invasion; invasion potential in cells expressing NCKAP1 ([3]; listed as NSC23677): significant reduction of invasion potential; invasion [4]: dose-dependent reduction in invasion potential
3 | ELXSSIXDFKDHK (EL[S5]SSI[S5]DFKDHK-NH2; staple 3-7) [WANT2, WASF3-NCKAP1 Target stapled peptide; X is (S)-2-(4′-pentenyl)alanine] |  | no significant effect on invasion potential |  |  |  |  |  |  |  |  |  |  |  |  |  | 
4 | KHCAXTISXAVNK (KHCA[S5]TIS[S5]AVNK-NH2; staple 5-9) [WANT1, WASF3-NCKAP1 Target stapled peptide; X is (S)-2-(4′-pentenyl)alanine] |  | no significant effect on invasion potential |  |  |  |  |  |  |  |  |  |  |  |  |  | 
5 | LEK*TNS*LAKIIRQL (LEK[S5]TNS[S5]LAKIIRQL-NH2; staple 4-8; not fully specified (N-terminus)) [WAHM1, WASF Helix Mimic stapled peptide; * is (S)-2-(4′-pentenyl)alanine that forms the staple] | dramatic decrease in WASF3 phosphorylation levels; also recorded: reduction in WASF3 phosphorylation |  | no significant difference in cell proliferation | CYFIP1 was not present in the immunocomplex | reduced migration potential; also recorded: significant reduction in cell motility | CYFIP1 was present in the pull down complex; also recorded: CYFIP1 was shown to interact | significantly suppresses invasion | increase in both the number and thickness of the actin stress fibers | increased intensity | reduced below detectable levels | did not affect | WASF3 protein levels were not affected; also recorded: without a reduction in WASF3 protein levels; also recorded: no reduction in WASF3 protein levels | remarkable reduction in secreted MMP9 levels; also recorded: significantly reduced MMP9 levels | more efficient | increased KISS1 levels; also recorded: KISS1 levels increase | suppression of invasion, WAHM1 compared with WANT3 [5]: comparable suppression of invasion
6 | LEKKTN*TLA*IIRQL (LEKKTN[S5]TLA[S5]IIRQL-NH2; staple 7-11; not fully specified (N-terminus)) [WAHM2, WASF Helix Mimic stapled peptide; * is (S)-2-(4′-pentenyl)alanine that forms the staple] | dramatic decrease in WASF3 phosphorylation levels; also recorded: reduction in WASF3 phosphorylation |  | no significant difference in cell proliferation | CYFIP1 was not present in the immunocomplex | reduced migration potential; also recorded: significant reduction in cell motility | CYFIP1 was present in the pull down complex; also recorded: CYFIP1 was shown to interact | significantly suppresses invasion | increase in both the number and thickness of the actin stress fibers | increased intensity | reduced below detectable levels | did not affect | WASF3 protein levels were not affected; also recorded: without a reduction in WASF3 protein levels; also recorded: no reduction in WASF3 protein levels | remarkable reduction in secreted MMP9 levels; also recorded: significantly reduced MMP9 levels | more efficient | increased KISS1 levels; also recorded: KISS1 levels increase | 
